# Test results: ChEMBL document CHEMBL5537161, “Structure-Guided Design, Synthesis, and Antivirulence Assessment of Covalent Staphylococcus aureus Sortase A Inhibitors” (J Med Chem, 2024)
# Active and inactive are the calls of the source. No cut-off for these calls is given here.
# Experiments:
# Staphylococcus aureus [1] = experiment: Bactericidal activity against Staphylococcus aureus Newman assessed as reduction in bacterial growth incubated for 16 to 18 hrs; format: functional; conditions: time 16-18 hrs
# Sortase A [2] = biological target: T1, Sortase A (Staphylococcus aureus, UniProt Q9S446, N24DEL); experiment: Inhibition of Staphylococcus aureus sortase A N24 deletion mutant using Abz-LPATG-Dnp as substrate preincubated for 20 mins followed by substrate addition by FRET assay
# Sortase A [3] = biological target: T1, Sortase A; experiment: Inhibition of Staphylococcus aureus Sortase A N24 deletion mutant transpeptidation using IsdA64-323 as substrate preincubated for 20 mins followed by substrate addition and measured after 1.5 hrs by SDS-PAGE analysis
# [4] = system: Sortase A (Staphylococcus aureus), Q9S446 [UNDEFINED MUTATION]; experiment: Inhibition of Staphylococcus aureus Sortase A N24 deletion mutant transpeptidation assessed as thermal stabilization by measuring change in melting temperature at 80 uM incubated for 15 mins by Nano-DSF assay
# Procathepsin L = Procathepsin L (Homo sapiens, UniProt P07711); experiment: Inhibition of cathepsin L (unknown origin) at 2 uM using Cbz-Phe-Arg-AMC as substrate preincubated for 5 mins followed by substrate addition by fluorescence based assay
# Sequence of Procathepsin L (P07711 114-333 limits assumed): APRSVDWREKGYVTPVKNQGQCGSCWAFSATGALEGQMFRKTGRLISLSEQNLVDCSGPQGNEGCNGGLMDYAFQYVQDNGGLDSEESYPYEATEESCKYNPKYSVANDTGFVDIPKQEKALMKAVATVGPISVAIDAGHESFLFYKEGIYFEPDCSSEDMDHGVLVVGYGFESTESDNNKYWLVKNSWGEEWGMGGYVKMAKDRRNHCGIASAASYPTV
# [5] = Toxicity in Galleria mellonella larvae assessed as change in appearance at 60 mg/kg measured after 120 hrs; format: organism-based; conditions: in vivo
# Staphylococcus aureus [6] = experiment: Antivirulence activity against Staphylococcus aureus Newman assessed as reduction in abundance of Sbi at 6.25 to 100 uM by Western blotting analysis; format: functional, organism-based; conditions: dose 6.25-100 µM
# Staphylococcus aureus [7] = experiment: Antivirulence activity against Staphylococcus aureus Newman assessed as reduction in abundance of anchored SpA in bacterial envelope by Western blotting analysis; format: functional, organism-based; conditions: dose 6.25-100 µM
# Streptococcus pyogenes [8] = experiment: Inhibition of Streptococcus pyogenes Sortase A N81 deletion mutant transpeptidation assessed as thermal stabilization by measuring change in melting temperature at 80 uM incubated for 15 mins by Nano-DSF assay
# [9] = Toxicity in Galleria mellonella larvae assessed as effect on survival at 60 mg/kg measured after 120 hrs; format: organism-based; conditions: in vivo
# Staphylococcus aureus [10] = experiment: Inhibition of Staphylococcus aureus Newman biofilm formation incubated for 14 hrs by Crystal violet staining based assay; format: functional, organism-based; conditions: dose 12.5-100 µM
# Staphylococcus aureus [11] = experiment: Antibacterial activity against Staphylococcus aureus USA300 infected in Galleria mellonella assessed as reduction in melanization at 200 uM pretreated with compound followed by larvae infection measured after 24 hrs; format: functional, organism-based
# Staphylococcus aureus [12] = experiment: Antibacterial activity against Staphylococcus aureus USA300 infected in Galleria mellonella assessed as increase in larvae survival at 30 mg/kg measured every 24 hrs for 5 days; format: functional; conditions: time 5 day
# [13] = system: Sortase A (Staphylococcus aureus), Q9S446 [UNDEFINED MUTATION]; experiment: Irreversible inhibition of Staphylococcus aureus sortase A N24 deletion mutant preincubated with compound for 1 to 60 mins followed by substrate addition by FRET based assay; conditions: time 1-60 min, TDE = time-dependent effect
# Streptococcus pyogenes [14] = experiment: Irreversible inhibition of Streptococcus pyogenes Sortase A N81 deletion mutant preincubated with compound for 1 to 60 mins followed by substrate addition by FRET based assay; conditions: time 1-60 min, TDE = time-dependent effect
# Staphylococcus aureus [15] = experiment: Inhibition of Staphylococcus aureus USA300 biofilm formation incubated for 14 hrs by Crystal violet staining based assay; format: functional, organism-based; conditions: dose 12.5-100 µM
# Staphylococcus aureus [16] = experiment: Antibacterial activity against Staphylococcus aureus Newman infected in Galleria mellonella assessed as reduction in melanization at 200 uM pretreated with compound followed by larvae infection measured after 24 hrs; format: functional, organism-based
# Staphylococcus aureus [17] = experiment: Antibacterial activity against Staphylococcus aureus Newman assessed as reduction in bacterial growth at 100 uM incubated for 14 hrs by microplate reader assay; format: functional, organism-based
# [18] = Inhibition of Streptococcus pyogenes Sortase A N81 deletion mutant transpeptidation using IsdA64-323 as substrate preincubated for 20 mins followed by substrate addition and measured after 1.5 hrs by SDS-PAGE analysis
# Cathepsin B = Cathepsin B (Homo sapiens, UniProt P07858); experiment: Inhibition of cathepsin B (unknown origin) at 2 uM using Cbz-Phe-Arg-AMC as substrate preincubated for 5 mins followed by substrate addition by fluorescence based assay
# [19] = Toxicity in Galleria mellonella assessed as change in color at 60 mg/kg measured after 120 hrs; format: organism-based; conditions: in vivo
# Staphylococcus aureus [20] = experiment: Antibacterial activity against Staphylococcus aureus USA300 assessed as reduction in bacterial growth at 100 uM incubated for 14 hrs by microplate reader assay; format: functional, organism-based
# Staphylococcus aureus [21] = experiment: Antibacterial activity against Staphylococcus aureus Newman infected in Galleria mellonella assessed as increase in larvae survival at 30 mg/kg measured every 24 hrs for 5 days; format: functional; conditions: time 5 day
compound,measurement,setting,value
COc1ccc(C=C2C(=O)NC(=O)NC2=O)cc1,MIC,Staphylococcus aureus [1],> 128 µg/mL
same,IC50,Sortase A [2],> 50000 nM
COc1ccc(/C=C/C=C2C(=O)c3ccccc3C2=O)cc1,MIC,Staphylococcus aureus [1],> 128 µg/mL
same,IC50,Sortase A [2],> 50000 nM
Cc1ccc(/C=C/C=C2C(=O)NC(=O)NC2=O)cc1,MIC,Staphylococcus aureus [1],128 µg/mL
same,IC50,Sortase A [2],1000 nM
O=C1NC(=O)C(=C/C=C/c2ccc(Br)cc2)C(=O)N1,MIC,Staphylococcus aureus [1],64 µg/mL
same,IC50,Sortase A [3],9000 nM
same,IC50,Sortase A [2],700 nM
O=C1NC(=O)C(=C/C=C/c2ccc(Cl)cc2)C(=O)N1,MIC,Staphylococcus aureus [1],128 µg/mL
same,IC50,Sortase A [2],1000 nM
O=C1NC(=O)C(=C/C=C/c2ccc(OCc3ccc(OCc4ccccc4)cc3)cc2)C(=O)N1,MIC,Staphylococcus aureus [1],> 128 µg/mL
same,IC50,Sortase A [2],> 50000 nM
O=C1NC(=O)C(=C/C=C/c2ccc(OCc3ccc(Cl)cc3)cc2)C(=O)N1,MIC,Staphylococcus aureus [1],> 128 µg/mL
same,IC50,Sortase A [2],2500 nM
CC(=O)Oc1ccc(COc2ccc(/C=C/C=C3C(=O)NC(=O)NC3=O)cc2)cc1,MIC,Staphylococcus aureus [1],> 128 µg/mL
same,IC50,Sortase A [3],16100 nM
same,IC50,Sortase A [2],800 nM
O=C1NC(=O)C(=CNCc2ccc(Br)cc2)C(=O)N1,MIC,Staphylococcus aureus [1],> 128 µg/mL
same,IC50,Sortase A [2],> 50000 nM
CN(C)c1ccc(/C=C/C=C2C(=O)NC(=O)NC2=O)cc1,MIC,Staphylococcus aureus [1],> 128 µg/mL
same,IC50,Sortase A [2],> 50000 nM
COc1ccc(/C=C/C=C2C(=O)N(C)C(=S)N(C)C2=O)cc1,MIC,Staphylococcus aureus [1],> 128 µg/mL
same,IC50,Sortase A [2],> 50000 nM
CC(C)CC=C1C(=O)NC(=O)NC1=O,MIC,Staphylococcus aureus [1],> 128 µg/mL
same,IC50,Sortase A [2],> 50000 nM
COc1ccc(/C=C/C=C2C(=O)NC(=O)NC2=O)cc1,ΔTm,[4],4.5 °C
same,inhibition,Procathepsin L,Active
same,Activity,[5],Non-Toxic
same,Activity,Staphylococcus aureus [6],Active
same,Activity,Staphylococcus aureus [7],Active
same,ΔTm,Streptococcus pyogenes [8],9.3 °C
same,Activity,[9],Non-Toxic
same,inhibition,Staphylococcus aureus [10],Dose-Dependent Effect
same,Activity,Staphylococcus aureus [11],Active
same,MIC,Staphylococcus aureus [1],> 128 µg/mL
same,Activity,Staphylococcus aureus [12],40%
same,inhibition,[13],Tde
same,inhibition,Streptococcus pyogenes [14],Tde
same,IC50,Sortase A [3],7400 nM
same,IC50,Sortase A [2],1000 nM
same,inhibition,Staphylococcus aureus [15],Dose-Dependent Effect
same,Activity,Staphylococcus aureus [16],Active
same,Activity,Staphylococcus aureus [17],inactive
same,IC50,[18],3400 nM
same,inhibition,Cathepsin B,Active
same,Activity,[19],Non-Toxic
same,Activity,Staphylococcus aureus [20],inactive
same,Activity,Staphylococcus aureus [21],<40%
O=C(CNC(=O)OCc1ccccc1)NCC(=O)Oc1ccc(/C=C/C=C2C(=O)NC(=O)NC2=O)cc1,MIC,Staphylococcus aureus [1],32 µg/mL
same,IC50,Sortase A [2],1700 nM
O=C1NC(=O)C(=C/C=C/c2ccc(OCc3ccncc3)cc2)C(=O)N1,MIC,Staphylococcus aureus [1],> 128 µg/mL
same,IC50,Sortase A [2],> 50000 nM
O=C1NC(=O)C(=C/C=C/c2ccc(C(F)(F)F)cc2)C(=O)N1,MIC,Staphylococcus aureus [1],64 µg/mL
same,IC50,Sortase A [2],1400 nM
O=C1NC(=O)C(=C/C=C/c2ccc(OC(=O)[C@H](CO)NC(=O)OCc3ccccc3)cc2)C(=O)N1,MIC,Staphylococcus aureus [1],> 128 µg/mL
same,IC50,Sortase A [2],2500 nM
COc1ncc(/C=C/C=C2C(=O)NC(=O)NC2=O)cn1,MIC,Staphylococcus aureus [1],> 128 µg/mL
same,IC50,Sortase A [2],7700 nM
CC(C)C[C@H](NC(=O)OCc1ccccc1)C(=O)Oc1ccc(/C=C/C=C2C(=O)NC(=O)NC2=O)cc1,MIC,Staphylococcus aureus [1],64 µg/mL
same,IC50,Sortase A [2],5600 nM
O=C1NC(=O)C(=Cc2ccc(-c3ccc(Br)cc3)o2)C(=O)N1,MIC,Staphylococcus aureus [1],64 µg/mL
same,IC50,Sortase A [2],> 50000 nM
O=C1NC(=O)C(=C/C=C/c2ccc([N+](=O)[O-])cc2)C(=O)N1,MIC,Staphylococcus aureus [1],128 µg/mL
same,IC50,Sortase A [2],2000 nM
O=C1NC(=O)C(=C/C=C/c2cccc(Cl)c2)C(=O)N1,MIC,Staphylococcus aureus [1],64 µg/mL
same,IC50,Sortase A [2],1000 nM
CC(C)CCC(=O)Oc1ccc(/C=C/C=C2C(=O)NC(=O)NC2=O)cc1,MIC,Staphylococcus aureus [1],128 µg/mL
same,IC50,Sortase A [2],1500 nM
O=C1NC(=O)C(=C/C=C/c2ccccc2Cl)C(=O)N1,MIC,Staphylococcus aureus [1],128 µg/mL
same,IC50,Sortase A [2],2100 nM
N#Cc1ccc(COc2ccc(/C=C/C=C3C(=O)NC(=O)NC3=O)cc2)cc1,MIC,Staphylococcus aureus [1],> 128 µg/mL
same,IC50,Sortase A [2],700 nM
O=C1NC(=O)C(=C/C=C/c2ccc(OCc3ccccc3)cc2)C(=O)N1,MIC,Staphylococcus aureus [1],> 128 µg/mL
same,IC50,Sortase A [3],8900 nM
same,IC50,Sortase A [2],500 nM
O=C1NC(=O)C(=C/C=C/c2ccccc2)C(=O)N1,MIC,Staphylococcus aureus [1],> 128 µg/mL
same,IC50,Sortase A [3],8200 nM
same,IC50,Sortase A [2],1100 nM
